From patent publication US20250042903A1, “TRIAZINE INHIBITORS OF CYCLIN-DEPENDENT KINASES” (H. LEE MOFFITT CANCER CENTER AND RESEARCH INSTITUTE, INC., priority 2021, published 2025)
pIC50: −log10 of the molar value.

Assays:
MDA-MB-231 = experiment: Antiproliferative activity in MDA-MB-231; assay type: cell-based; settings: Homo sapiens
Source text: (§1) The inhibitory and antiproliferative activities of selected compounds disclosed herein against cyclin-dependent kinase 12 were investigated.

[1] = biological target: cyclin-dependent kinase 12 (Homo sapiens (Human), UniProt Q9NYV4); experiment: Inhibition of cyclin-dependent kinase 12; assay type: biochemical; settings: read-out: CDK12 inhibition, IC50
Chain of cyclin-dependent kinase 12 (Q9NYV4 whole entry): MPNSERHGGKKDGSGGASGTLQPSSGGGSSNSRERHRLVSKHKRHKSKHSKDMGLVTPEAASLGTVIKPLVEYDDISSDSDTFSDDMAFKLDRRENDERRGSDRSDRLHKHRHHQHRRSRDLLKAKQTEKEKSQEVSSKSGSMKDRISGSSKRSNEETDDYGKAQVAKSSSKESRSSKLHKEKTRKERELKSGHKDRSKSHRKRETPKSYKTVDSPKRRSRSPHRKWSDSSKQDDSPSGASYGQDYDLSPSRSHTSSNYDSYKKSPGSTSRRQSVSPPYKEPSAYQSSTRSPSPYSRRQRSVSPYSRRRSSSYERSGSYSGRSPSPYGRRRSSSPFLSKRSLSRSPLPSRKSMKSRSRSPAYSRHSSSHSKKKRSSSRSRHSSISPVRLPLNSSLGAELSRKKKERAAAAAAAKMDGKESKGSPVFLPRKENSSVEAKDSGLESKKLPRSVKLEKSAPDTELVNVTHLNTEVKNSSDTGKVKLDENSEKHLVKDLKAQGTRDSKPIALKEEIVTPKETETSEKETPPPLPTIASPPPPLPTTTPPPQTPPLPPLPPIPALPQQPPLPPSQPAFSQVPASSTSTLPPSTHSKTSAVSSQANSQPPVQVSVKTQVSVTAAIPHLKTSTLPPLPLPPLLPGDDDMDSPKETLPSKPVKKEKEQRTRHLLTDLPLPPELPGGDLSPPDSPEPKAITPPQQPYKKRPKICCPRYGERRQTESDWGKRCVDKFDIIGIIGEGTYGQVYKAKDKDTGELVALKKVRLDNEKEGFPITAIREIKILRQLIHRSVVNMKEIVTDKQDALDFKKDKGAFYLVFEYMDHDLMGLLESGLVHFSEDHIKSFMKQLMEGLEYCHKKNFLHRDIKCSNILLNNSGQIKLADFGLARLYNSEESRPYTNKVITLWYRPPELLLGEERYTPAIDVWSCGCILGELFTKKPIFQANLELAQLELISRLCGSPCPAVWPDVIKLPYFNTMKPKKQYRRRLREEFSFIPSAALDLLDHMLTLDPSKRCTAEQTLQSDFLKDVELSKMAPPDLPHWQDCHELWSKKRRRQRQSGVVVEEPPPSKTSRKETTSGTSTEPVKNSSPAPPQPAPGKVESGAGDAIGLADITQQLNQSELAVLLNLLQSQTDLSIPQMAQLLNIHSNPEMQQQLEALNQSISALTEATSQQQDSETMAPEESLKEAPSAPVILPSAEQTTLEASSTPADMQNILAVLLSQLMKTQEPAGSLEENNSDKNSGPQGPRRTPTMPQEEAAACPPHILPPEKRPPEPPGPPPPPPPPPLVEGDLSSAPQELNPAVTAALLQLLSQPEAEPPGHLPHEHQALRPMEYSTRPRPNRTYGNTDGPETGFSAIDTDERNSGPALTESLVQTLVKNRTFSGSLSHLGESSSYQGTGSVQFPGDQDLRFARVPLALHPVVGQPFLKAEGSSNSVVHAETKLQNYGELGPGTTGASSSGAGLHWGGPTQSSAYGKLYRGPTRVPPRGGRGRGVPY
Chain of cyclin-dependent kinase 12 (O75909 whole entry partner): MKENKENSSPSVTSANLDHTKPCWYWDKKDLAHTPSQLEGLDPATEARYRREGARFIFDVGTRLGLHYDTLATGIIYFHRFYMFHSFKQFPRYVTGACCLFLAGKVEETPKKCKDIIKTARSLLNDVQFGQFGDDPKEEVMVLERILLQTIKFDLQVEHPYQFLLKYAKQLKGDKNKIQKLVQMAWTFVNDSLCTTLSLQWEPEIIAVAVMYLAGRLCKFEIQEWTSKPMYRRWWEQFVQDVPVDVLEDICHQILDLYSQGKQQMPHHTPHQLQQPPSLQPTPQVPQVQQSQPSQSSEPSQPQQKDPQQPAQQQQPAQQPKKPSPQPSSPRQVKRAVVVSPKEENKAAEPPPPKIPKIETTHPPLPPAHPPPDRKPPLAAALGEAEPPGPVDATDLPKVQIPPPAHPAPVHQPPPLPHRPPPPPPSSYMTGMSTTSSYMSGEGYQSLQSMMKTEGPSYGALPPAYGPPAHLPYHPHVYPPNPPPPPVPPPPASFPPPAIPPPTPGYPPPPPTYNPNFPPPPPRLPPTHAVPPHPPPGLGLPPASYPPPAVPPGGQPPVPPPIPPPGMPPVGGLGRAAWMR
Source text: as §1

Row | GI50 (MDA-MB-231) | pIC50 [1] | Compound
1 | 1.11 µM | 6.54 | Cn1cc(-c2cnn3c(NCc4nc5cccc(Cl)c5[nH]4)nc(N4CCOCC4)nc23)cn1 [Compound 12, N-((7-chloro-1H-benzo[d]imidazol-2-yl)methyl)-8-(1-methyl-1H-pyrazol-4-yl)-2-morpholinopyrazolo[1,5-a][1,3,5]triazin-4-amine]
2 | 3.77 µM | 5.89 | Cn1cc(-c2cnn3c(NCc4nc5cccc(Cl)c5[nH]4)nc(N4CCC(F)(F)CC4)nc23)cn1 [Compound 13, N-((7-chloro-1H-benzo[d]imidazol-2-yl)methyl)-2-(4,4-difluoropiperidin-1-yl)-8-(1-methyl-1H-pyrazol-4-yl)pyrazolo[1,5-a][1,3,5]triazin-4-amine]
3 | 0.061 µM | 6.71 | Fc1cc2nc(CNc3nc(N4CCOCC4)nc4c(-c5ccsc5)cnn34)[nH]c2cc1F [Compound 11, N-((5,6-difluoro-1H-benzo[d]imidazol-2-yl)methyl)-2-morpholino-8-(thiophen-3-yl)pyrazolo[1,5-a][1,3,5]triazin-4-amine]
4 | 1.24 µM | 5.87 | Cn1cc(-c2cnn3c(NCc4nc5cc(F)c(F)cc5[nH]4)nc(N4CCOCC4)nc23)cn1 [Compound 14, N-((5,6-difluoro-1H-benzo[d]imidazol-2-yl)methyl)-8-(1-methyl-1H-pyrazol-4-yl)-2-morpholinopyrazolo[1,5-a][1,3,5]triazin-4-amine]
5 | 0.835 µM | 5.81 | CN1CCN(c2nc(NCc3nc4cccc(Cl)c4[nH]3)n3ncc(-c4ccsc4)c3n2)CC1 [Compound 10, N-((7-chloro-1H-benzo[d]imidazol-2-yl)methyl)-2-(4-methylpiperazin-1-yl)-8-(thiophen-3-yl)pyrazolo[1,5-a][1,3,5]triazin-4-amine]
6 | 0.227 µM | 6.42 | Clc1cccc2nc(CNc3nc(N4CCOCC4)nc4c(-c5ccsc5)cnn34)[nH]c12 [Compound 9, N-((7-chloro-1H-benzo[d]imidazol-2-yl)methyl)-2-morpholino-8-(thiophen-3-yl)pyrazolo[1,5-a][1,3,5]triazin-4-amine]

Further lines, the compound ahead of its results:

Row | Compound | GI50 (MDA-MB-231) | pIC50 [1]
7 | FC(F)n1cc(-c2cnn3c(NCc4nc5cc(Cl)c(Cl)cc5[nH]4)nc(N4CCC(F)(F)CC4)nc23)cn1 [Compound 3, N-((5,6-dichloro-1H-benzo[d]imidazol-2-yl)methyl)-8-(1-(difluoromethyl)-1H-pyrazol-4-yl)-2-(4,4-difluoropiperidin-1-yl)pyrazolo[1,5-a][1,3,5]triazin-4-amine] | 0.71 µM | < 5.00
8 | FC(F)n1cc(-c2cnn3c(NCc4nc5cccc(Cl)c5[nH]4)nc(N4CCOCC4)nc23)cn1 [Compound 6, N-((7-chloro-1H-benzo[d]imidazol-2-yl)methyl)-8-(1-(difluoromethyl)-1H-pyrazol-4-yl)-2-morpholinopyrazolo[1,5-a][1,3,5]triazin-4-amine] | 0.062 µM | 7.19
9 | FC(F)n1cc(-c2cnn3c(NCc4nc5cc(Cl)c(Cl)cc5[nH]4)nc(N4CCOCC4)nc23)cn1 [Compound 2, N-((5,6-dichloro-1H-benzo[d]imidazol-2-yl)methyl)-8-(1-(difluoromethyl)-1H-pyrazol-4-yl)-2-morpholinopyrazolo[1,5-a][1,3,5]triazin-4-amine] | 0.15 µM | 6.58
10 | Fc1cccc2nc(CNc3nc(N4CCOCC4)nc4c(-c5cnn(C(F)F)c5)cnn34)[nH]c12 [Compound 8, 8-(1-(difluoromethyl)-1H-pyrazol-4-yl)-N-((7-fluoro-1H-benzo[d]imidazol-2-yl)methyl)-2-morpholinopyrazolo[1,5-a][1,3,5]triazin-4-amine] | 0.044 µM | 7.36
11 | Cn1cc(-c2cnn3c(NCc4nc5cc(Cl)c(Cl)cc5[nH]4)nc(N4CCOCC4)nc23)cn1 [Compound 1, N-((5,6-dichloro-1H-benzo[d]imidazol-2-yl)methyl)-8-(1-methyl-1H-pyrazol-4-yl)-2-morpholinopyrazolo[1,5-a][1,3,5]triazin-4-amine] | 0.419 µM | 6.26
12 | OC[C@@H]1COCCN1c1nc(NCc2nc3cc(Cl)c(Cl)cc3[nH]2)n2ncc(-c3cnn(C(F)F)c3)c2n1 [Compound 4, (R)-(4-(4-(((5,6-dichloro-1H-benzo[d]imidazol-2-yl)methyl)amino)-8-(1-(difluoromethyl)-1H-pyrazol-4-yl)pyrazolo[1,5-a][1,3,5]triazin-2-yl)morpholin-3-yl)methanol] | 0.384 µM | 5.39
13 | FC(F)n1cc(-c2cnn3c(NCc4nc5cccc(Cl)c5[nH]4)nc(N4CCC(F)(F)CC4)nc23)cn1 [Compound 7, N-((7-chloro-1H-benzo[d]imidazol-2-yl)methyl)-8-(1-(difluoromethyl)-1H-pyrazol-4-yl)-2-(4,4-difluoropiperidin-1-yl)pyrazolo[1,5-a][1,3,5]triazin-4-amine] | 0.98 µM | 6.26
14 | Clc1cc2nc(CNc3nc(N4CCOCC4)nc4c(-c5ccsc5)cnn34)[nH]c2cc1Cl [Compound 5, N-((5,6-dichloro-1H-benzo[d]imidazol-2-yl)methyl)-2-morpholino-8-(thiophen-3-yl)pyrazolo[1,5-a][1,3,5]triazin-4-amine] | 0.764 µM | 5.62
